Test results from patent US20120184542A1, “PYRIDO PYRIMIDINES” (priority 2011, published 2012).
Counter-ions that a name gives are not always drawn.

Legend:
[1] = test system: SW620 human colon cancer cells; assay: SW620 Cell Viability Assay; type: cell-based; details: Homo sapiens, SW-620, 96 h, CellTiter-Glo; 4 days incubation; read-out: Cellular EC50 (μM) SW620
Procedure, shortened: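 SW620 human colon cancer cells, some attached 24 h then serum-starved 48 h before dosing; compounds prepared in serum-supplemented medium. Cells incubated with compound 4 days at 37 °C, 5% CO2, and viability measured by CellTiter-Glo luminescence.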

[2] = biological target: T1, Human DYRK1B (Homo sapiens, UniProt Q9Y463); assay: DYRK1B Kinase TR-FRET (IMAP-Tb) Assay; type: biochemical; details: TR-FRET (IMAP-Tb); ATP 70 μM; 37° C. 60 minutes; read-out: Enzyme IC50 (μM) DYRK1B
T1 construct: purchased Invitrogen PR8350B (former PV4649)

[3] = biological target: T2, Human DYRK1A (Homo sapiens, UniProt Q13627); assay: DYRK1A Kinase TR-FRET (IMAP-Tb) Assay; type: biochemical; details: TR-FRET (IMAP-Tb); ATP 70 μM; 37° C. 60 minutes; read-out: Enzyme IC50 (μM) DYRK1A
T2 construct: purchased Invitrogen PV3997
Procedure, shortened: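 Recombinant human DYRK1A phosphorylated fluorescent substrate peptide (1.0 μM) with ATP in 10 mM HEPES pH 7.0, 50 mM NaCl, 5 mM MgCl2, 1 mM DTT, 1 mM NaVO4, 0.02% BSA for 60 min at 37 °C. Phosphopeptide detected by IMAP terbium TR-FRET; IC50 reported.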

T1 sequence (Q9Y463 whole entry): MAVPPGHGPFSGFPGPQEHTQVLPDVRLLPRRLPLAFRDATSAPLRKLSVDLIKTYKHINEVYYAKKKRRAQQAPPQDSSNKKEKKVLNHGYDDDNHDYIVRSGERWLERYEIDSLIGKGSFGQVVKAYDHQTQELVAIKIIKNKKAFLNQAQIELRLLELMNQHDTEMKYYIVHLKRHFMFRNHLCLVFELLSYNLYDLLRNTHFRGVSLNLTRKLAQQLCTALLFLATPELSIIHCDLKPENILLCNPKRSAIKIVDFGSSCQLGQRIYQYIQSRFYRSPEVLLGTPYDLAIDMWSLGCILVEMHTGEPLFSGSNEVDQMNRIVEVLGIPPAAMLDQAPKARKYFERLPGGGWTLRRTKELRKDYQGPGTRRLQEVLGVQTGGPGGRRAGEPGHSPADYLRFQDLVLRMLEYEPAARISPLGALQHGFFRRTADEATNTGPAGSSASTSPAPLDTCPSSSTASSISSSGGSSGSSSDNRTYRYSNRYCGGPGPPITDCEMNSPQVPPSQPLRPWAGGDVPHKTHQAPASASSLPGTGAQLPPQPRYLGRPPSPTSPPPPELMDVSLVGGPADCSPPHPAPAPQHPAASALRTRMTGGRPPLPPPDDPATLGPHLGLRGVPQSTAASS

Structure (SMILES) | EC50 [1] | IC50 [2] | IC50 [3]
COc1ncc2cc(C(=O)Nc3cc(C(=O)NCCC(N)=O)ccc3Cl)c(=O)[nH]c2n1 [Example 167, N-(5-(3-Amino-3-oxopropylcarbamoyl)-2-chlorophenyl)-2-methoxy-7-oxo-7,8-dihydropyrido[2,3-d]pyrimidine-6-carboxamide] | > 10 µM | 0.769 µM | 0.338 µM
COc1nc(C)c2cc(C(=O)Nc3cc(C(=O)NC(CN)c4ccccc4)ccc3Cl)c(=O)[nH]c2n1 (stereo not drawn) [Example 170, N-(5-(2-Amino-1-phenylethylcarbamoyl)-2-chlorophenyl)-2-methoxy-4-methyl-7-oxo-7,8-dihydropyrido[2,3-d]pyrimidine-6-carboxamide 2,2,2-trifluoroacetate] | 3.21 µM | 0.117 µM | 0.0164 µM
CN1CCN(c2ncc3cc(C(=O)Nc4cc(C(=O)NCc5ccccc5)ccc4Cl)c(=O)[nH]c3n2)CC1 [Example 172, 2-(4-Methyl-piperazin-1-yl)-7-oxo-7,8-dihydro-pyrido[2,3-d]pyrimidine-6-carboxylic acid (5-benzylcarbamoyl-2-chloro-phenyl)-amide] | 0.49 µM | 0.208 µM | 0.109 µM
C[C@@H](NC(=O)c1ccc(Cl)c(NC(=O)c2cc3cnc(N4CCN(C)CC4)nc3[nH]c2=O)c1)c1ccccc1 [Example 174, 2-(4-Methyl-piperazin-1-yl)-7-oxo-7,8-dihydro-pyrido[2,3-d]pyrimidine-6-carboxylic acid [2-chloro-5-((R)-1-phenyl-ethylcarbamoyl)-phenyl]-amide] | 0.512 µM | 0.207 µM | 0.0873 µM
O=C(NCc1cccc(Cl)c1)c1ccc(Cl)c(NC(=O)c2cc3cnc(N4C[C@H]5CC[C@@H](C4)O5)nc3[nH]c2=O)c1 [Example 179, 2-(1R,5S)-8-Oxa-3-aza-bicyclo [3.2.1]oct-3-yl-7-oxo-7,8-dihydro-pyrido[2,3-d]pyrimidine-6-carboxylic acid [2-chloro-5-(3-chloro-benzylcarbamoyl)-phenyl]amide] | 0.367 µM | 0.131 µM | 0.0369 µM
O=C(NC(CO)c1ccccc1)c1ccc(Cl)c(NC(=O)c2cc3cnc(N4C[C@H]5CC[C@@H](C4)O5)nc3[nH]c2=O)c1 (stereo partly drawn) [Example 181, 2-(1R,5S)-8-Oxa-3-aza-bicyclo [3.2.1]oct-3-yl-7-oxo-7,8-dihydro-pyrido[2,3-d]pyrimidine-6-carboxylic acid [2-chloro-5-(2-hydroxy-1-phenyl-ethylcarbamoyl)-phenyl]amide] | 1.88 µM | 0.148 µM | 0.063 µM
O=C(NC(CCO)c1ccccc1)c1ccc(Cl)c(NC(=O)c2cc3cnc(N4C[C@H]5CC[C@@H](C4)O5)nc3[nH]c2=O)c1 (stereo partly drawn) [Example 182, 2-(1R,5S)-8-Oxa-3-aza-bicyclo [3.2.1]oct-3-yl-7-oxo-7,8-dihydro-pyrido[2,3-d]pyrimidine-6-carboxylic acid [2-chloro-5-(3-hydroxy-1-phenyl-propylcarbamoyl)-phenyl]amide] | 1.12 µM | 0.081 µM | 0.083 µM
NCCC(NC(=O)c1ccc(Cl)c(NC(=O)c2cc3cnc(N4C[C@H]5CC[C@@H](C4)O5)nc3[nH]c2=O)c1)c1ccccc1 (stereo partly drawn) [Example 183, 2-(1R,5S)-8-Oxa-3-aza-bicyclo [3.2.1]oct-3-yl-7-oxo-7,8-dihydro-pyrido[2,3-d]pyrimidine-6-carboxylic acid [5-(3-amino-1-phenyl-propylcarbamoyl)-2-chloro-phenyl]amide; hydrochloride] | 0.027 µM | 0.0077 µM | 0.0046 µM
COc1ncc2cc(C(=O)Nc3cc(C(=O)NCC[C@@H](N)c4ccccc4)ccc3Cl)c(=O)[nH]c2n1 [Example 184, (R)—N-(5-(3-Amino-3-phenylpropylcarbamoyl)-2-chlorophenyl)-2-methoxy-7-oxo-7,8-dihydropyrido[2,3-d]pyrimidine-6-carboxamide] | 5.09 µM | 0.691 µM | 0.331 µM
